For 18 compounds, IC50 results are on record in patent US12319672B2, “Alpha-D-galactopyranoside derivatives” (Idorsia Pharmaceuticals Ltd, priority 2019, dated 2025).

One experiment addresses human Gal-1 (hGal-1). As to the kind of experiment: Competitive binding assay: binding of biotinylated hGal-1 to microplate-adsorbed asialofetuin (ASF). The conditions noted are these: Activities on hGal-1; mean values of several measurements. The method in brief:
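Spectrophotometric readout (streptavidin-peroxidase, ABTS) of biotinylated galectin retained on ASF-coated wells. Biotinylated hGal-1 or hGal-3, 300-1000 ng/mL, co-incubated with test compound 3 h at 4° C, then washed. Mean IC50 from repeat runs.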

In a further experiment the target is human Gal-3 (hGal-3) (Homo sapiens (Human), UniProt P17931). Briefly: Competitive binding assay: binding of biotinylated hGal-3 to microplate-adsorbed asialofetuin (ASF). To be noted: Activity on hGal-3; mean values of several measurements. The procedure, abridged: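 For hGal-1, a variant with all six cysteines replaced by serines is preferred. Either galectin, biotinylated at 300-1000 ng/mL, competes with compound for microplate-bound ASF over 3 h at 4° C; peroxidase/ABTS detection gives IC50, averaged.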
Sequence of human Gal-3 (hGal-3) (P17931 whole entry): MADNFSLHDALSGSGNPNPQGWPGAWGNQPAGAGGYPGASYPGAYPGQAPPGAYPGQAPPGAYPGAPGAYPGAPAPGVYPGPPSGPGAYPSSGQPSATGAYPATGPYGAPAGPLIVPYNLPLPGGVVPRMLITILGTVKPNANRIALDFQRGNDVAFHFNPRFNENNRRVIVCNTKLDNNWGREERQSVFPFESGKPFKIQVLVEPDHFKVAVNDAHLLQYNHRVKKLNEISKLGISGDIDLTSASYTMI

Sequence of human Gal-1 (hGal-1) (P09382 2-135 limits assumed): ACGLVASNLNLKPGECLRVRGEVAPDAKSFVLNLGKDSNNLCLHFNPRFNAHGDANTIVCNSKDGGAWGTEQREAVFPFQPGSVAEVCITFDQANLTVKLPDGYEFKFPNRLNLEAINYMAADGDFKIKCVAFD

As for `CO[C@@H]1[C@@H](n2cc(-c3cc(F)c(F)c(F)c3)nn2)[C@@H](O)[C@@H](CO)O[C@@H]1C[C@H]1CC(C2CCN(C(C)=O)CC2)=NO1` [Example 3.13, 1-(4-((R)-5-(((2R,3R,4S,5R,6R)-5-hydroxy-6-(hydroxymethyl)-3-methoxy-4-(4-(3,4,5-trifluorophenyl)-1H-1,2,3-triazol-1-yl)tetrahydro-2H-pyran-2-yl)methyl)-4,5-dihydroisoxazol-3-yl)piperidin-1-yl)ethan-1-one], the 50% inhibitory concentration (IC50) (commonly the midpoint of a concentration-inhibition curve) on human Gal-1 (hGal-1) stood at 4020 nM; at human Gal-3 (hGal-3) it was 670 nM.

`CC(=O)O[C@@H]1[C@@H](n2cc(-c3cc(F)c(F)c(F)c3)nn2)[C@@H](O)[C@@H](CO)O[C@@H]1Cc1cc(C2CCNCC2)on1` [Example 3.15, (2R,3R,4S,5R,6R)-5-hydroxy-6-(hydroxymethyl)-2-((5-(piperidin-4-yl)isoxazol-3-yl)methyl)-4-(4-(3,4,5-trifluorophenyl)-1H-1,2,3-triazol-1-yl)tetrahydro-2H-pyran-3-yl acetate]: the 50% inhibitory concentration (IC50) was 13600 nM on human Gal-1 (hGal-1) and 140 nM at human Gal-3 (hGal-3).

As to `CO[C@@H]1[C@@H](n2cc(-c3cc(F)c(F)c(F)c3)nn2)[C@@H](O)[C@@H](CO)O[C@@H]1Cc1cc(C2CCNCC2)on1` [Example 3.16, (2R,3R,4S,5R,6R)-2-(hydroxymethyl)-5-methoxy-6-((5-(piperidin-4-yl)isoxazol-3-yl)methyl)-4-(4-(3,4,5-trifluorophenyl)-1H-1,2,3-triazol-1-yl)tetrahydro-2H-pyran-3-ol], the concentration for half-maximal inhibition (IC50) at human Gal-1 (hGal-1) worked out at 5190 nM; on human Gal-3 (hGal-3) it was 220 nM.

For the compound `CC(=O)N1CCC([C@H]2CC(C[C@H]3O[C@H](CO)[C@H](O)[C@H](n4cc(-c5cc(F)c(F)c(F)c5)nn4)[C@H]3O)=NO2)CC1` [Example 3.19, 1-(4-((R)-3-(((2R,3R,4R,5R,6R)-3,5-dihydroxy-6-(hydroxymethyl)-4-(4-(3,4,5-trifluorophenyl)-1H-1,2,3-triazol-1-yl)tetrahydro-2H-pyran-2-yl)methyl)-4,5-dihydroisoxazol-5-yl)piperidin-1-yl)ethan-1-one], the IC50 at human Gal-1 (hGal-1) is 4720 nM; at human Gal-3 (hGal-3), 430 nM.

For `CC(=O)N1CCC([C@@H]2CC(C[C@H]3O[C@H](CO)[C@H](O)[C@H](n4cc(-c5cc(F)c(F)c(F)c5)nn4)[C@H]3O)=NO2)CC1` [Example 3.20, 1-(4-((S)-3-(((2R,3R,4R,5R,6R)-3,5-dihydroxy-6-(hydroxymethyl)-4-(4-(3,4,5-trifluorophenyl)-1H-1,2,3-triazol-1-yl)tetrahydro-2H-pyran-2-yl)methyl)-4,5-dihydroisoxazol-5-yl)piperidin-1-yl)ethan-1-one], the values for the concentration for half-maximal inhibition (IC50) on human Gal-1 (hGal-1) and at human Gal-3 (hGal-3) were 1850 nM and 240 nM, respectively.

Regarding `CO[C@@H]1[C@@H](n2cc(-c3cc(F)c(F)c(F)c3)nn2)[C@@H](O)[C@@H](CO)O[C@@H]1Cc1cc(C2CCN(C(C)=O)CC2)on1` [Example 3.21, 1-(4-(3-(((2R,3R,4S,5R,6R)-5-hydroxy-6-(hydroxymethyl)-3-methoxy-4-(4-(3,4,5-trifluorophenyl)-1H-1,2,3-triazol-1-yl)tetrahydro-2H-pyran-2-yl)methyl)isoxazol-5-yl)piperidin-1-yl)ethan-1-one], the IC50 at human Gal-1 (hGal-1) worked out at 590 nM; on human Gal-3 (hGal-3) it was 46 nM.

Regarding `CC(=O)O[C@@H]1[C@@H](n2cc(-c3cc(F)c(F)c(F)c3)nn2)[C@@H](O)[C@@H](CO)O[C@@H]1Cc1cc(C2CCN(C(C)=O)CC2)on1` [Example 3.22, (2R,3R,4S,5R,6R)-2-((5-(1-acetylpiperidin-4-yl)isoxazol-3-yl)methyl)-5-hydroxy-6-(hydroxymethyl)-4-(4-(3,4,5-trifluorophenyl)-1H-1,2,3-triazol-1-yl)tetrahydro-2H-pyran-3-yl acetate], the half-inhibitory concentration (IC50) was found to be 1870 nM at human Gal-1 (hGal-1) and 28 nM at human Gal-3 (hGal-3).

Take `CC(=O)O[C@@H]1[C@@H](n2cc(-c3cc(F)c(F)c(F)c3)nn2)[C@@H](O)[C@@H](CO)O[C@@H]1CC1=NO[C@@H](C2CCN(C(C)=O)CC2)C1` [Example 3.24, (2R,3R,4S,5R,6R)-2-(((R)-5-(1-acetylpiperidin-4-yl)-4,5-dihydroisoxazol-3-yl)methyl)-5-hydroxy-6-(hydroxymethyl)-4-(4-(3,4,5-trifluorophenyl)-1H-1,2,3-triazol-1-yl)tetrahydro-2H-pyran-3-yl acetate]: the concentration for half-maximal inhibition (IC50) was determined as 9190 nM at human Gal-1 (hGal-1) and 340 nM on human Gal-3 (hGal-3).

Consider `CC(=O)O[C@@H]1[C@@H](n2cc(-c3cc(F)c(F)c(F)c3)nn2)[C@@H](O)[C@@H](CO)O[C@@H]1CC1=NO[C@H](C2CCN(C(C)=O)CC2)C1` [Example 3.25, (2R,3R,4S,5R,6R)-2-(((S)-5-(1-acetylpiperidin-4-yl)-4,5-dihydroisoxazol-3-yl)methyl)-5-hydroxy-6-(hydroxymethyl)-4-(4-(3,4,5-trifluorophenyl)-1H-1,2,3-triazol-1-yl)tetrahydro-2H-pyran-3-yl acetate], for which the IC50 is 2470 nM on human Gal-1 (hGal-1) and 170 nM on human Gal-3 (hGal-3).

As to `CCOC(=O)N1CCC(c2cc(C[C@H]3O[C@H](CO)[C@H](O)[C@H](n4cc(-c5cc(F)c(F)c(F)c5)nn4)[C@H]3O)no2)CC1` [Example 3.26, ethyl 4-(3-(((2R,3R,4R,5R,6R)-3,5-dihydroxy-6-(hydroxymethyl)-4-(4-(3,4,5-trifluorophenyl)-1H-1,2,3-triazol-1-yl)tetrahydro-2H-pyran-2-yl)methyl)isoxazol-5-yl)piperidine-1-carboxylate], the 50% inhibitory concentration (IC50) on human Gal-1 (hGal-1) stood at 930 nM; on human Gal-3 (hGal-3), 68 nM.

As to `CCNC(=O)N1CCC(c2cc(C[C@H]3O[C@H](CO)[C@H](O)[C@H](n4cc(-c5cc(F)c(F)c(F)c5)nn4)[C@H]3O)no2)CC1` [Example 3.27, 4-(3-(((2R,3R,4R,5R,6R)-3,5-dihydroxy-6-(hydroxymethyl)-4-(4-(3,4,5-trifluorophenyl)-1H-1,2,3-triazol-1-yl)tetrahydro-2H-pyran-2-yl)methyl)isoxazol-5-yl)-N-ethylpiperidine-1-carboxamide], the IC50 on human Gal-1 (hGal-1) came out at 870 nM; at human Gal-3 (hGal-3), 32 nM.

`CS(=O)(=O)N1CCC(c2cc(C[C@H]3O[C@H](CO)[C@H](O)[C@H](n4cc(-c5cc(F)c(F)c(F)c5)nn4)[C@H]3O)no2)CC1` [Example 3.28, (2R,3R,4R,5R,6R)-2-(hydroxymethyl)-6-((5-(1-(methylsulfonyl)piperidin-4-yl)isoxazol-3-yl)methyl)-4-(4-(3,4,5-trifluorophenyl)-1H-1,2,3-triazol-1-yl)tetrahydro-2H-pyran-3,5-diol]: the IC50 on human Gal-1 (hGal-1) came out at 1230 nM; on human Gal-3 (hGal-3), 38 nM.

As to `CN1CCC(c2cc(C[C@H]3O[C@H](CO)[C@H](O)[C@H](n4cc(-c5cc(F)c(F)c(F)c5)nn4)[C@H]3O)no2)CC1` [Example 3.29, (2R,3R,4R,5R,6R)-2-(hydroxymethyl)-6-((5-(1-methylpiperidin-4-yl)isoxazol-3-yl)methyl)-4-(4-(3,4,5-trifluorophenyl)-1H-1,2,3-triazol-1-yl)tetrahydro-2H-pyran-3,5-diol], the IC50 is 15800 nM on human Gal-1 (hGal-1) and 270 nM on human Gal-3 (hGal-3).

For the compound `CC(C)(C)C(=O)N1CCC(c2cc(C[C@H]3O[C@H](CO)[C@H](O)[C@H](n4cc(-c5cc(F)c(F)c(F)c5)nn4)[C@H]3O)no2)CC1` [Example 3.30, 1-(4-(3-(((2R,3R,4R,5R,6R)-3,5-dihydroxy-6-(hydroxymethyl)-4-(4-(3,4,5-trifluorophenyl)-1H-1,2,3-triazol-1-yl)tetrahydro-2H-pyran-2-yl)methyl)isoxazol-5-yl)piperidin-1-yl)-2,2-dimethylpropan-1-one], the IC50 at human Gal-1 (hGal-1) was determined as 3620 nM; at human Gal-3 (hGal-3) it was 160 nM.

Regarding `CCOC(=O)N1CCC(c2cc(C[C@H]3O[C@H](CO)[C@H](O)[C@H](n4cc(-c5cc(F)c(F)c(F)c5)nn4)[C@H]3OC)no2)CC1` [Example 3.31, ethyl 4-(3-(((2R,3R,4S,5R,6R)-5-hydroxy-6-(hydroxymethyl)-3-methoxy-4-(4-(3,4,5-trifluorophenyl)-1H-1,2,3-triazol-1-yl)tetrahydro-2H-pyran-2-yl)methyl)isoxazol-5-yl)piperidine-1-carboxylate], the IC50 at human Gal-1 (hGal-1) is 850 nM; on human Gal-3 (hGal-3) it was 73 nM.

For `COC(=O)N1CCC(c2cc(C[C@H]3O[C@H](CO)[C@H](O)[C@H](n4cc(-c5cc(F)c(F)c(F)c5)nn4)[C@H]3OC)no2)CC1` [Example 3.32, methyl 4-(3-(((2R,3R,4S,5R,6R)-5-hydroxy-6-(hydroxymethyl)-3-methoxy-4-(4-(3,4,5-trifluorophenyl)-1H-1,2,3-triazol-1-yl)tetrahydro-2H-pyran-2-yl)methyl)isoxazol-5-yl)piperidine-1-carboxylate], the concentration for half-maximal inhibition (IC50) at human Gal-1 (hGal-1) was 610 nM; on human Gal-3 (hGal-3), 46 nM.

For the compound `CO[C@@H]1[C@@H](n2cc(-c3cc(F)c(F)c(F)c3)nn2)[C@@H](O)[C@@H](CO)O[C@@H]1Cc1cc(C2CCN(C(=O)C(C)C)CC2)on1` [Example 3.33, 1-(4-(3-(((2R,3R,4S,5R,6R)-5-hydroxy-6-(hydroxymethyl)-3-methoxy-4-(4-(3,4,5-trifluorophenyl)-1H-1,2,3-triazol-1-yl)tetrahydro-2H-pyran-2-yl)methyl)isoxazol-5-yl)piperidin-1-yl)-2-methylpropan-1-one], the values for the IC50 on human Gal-1 (hGal-1) and on human Gal-3 (hGal-3) were 1080 nM and 65 nM, respectively.

As for `CO[C@@H]1[C@@H](n2cc(-c3cc(F)c(F)c(F)c3)nn2)[C@@H](O)[C@@H](CO)O[C@@H]1Cc1cc(C2CCN(C(=O)C(C)(C)C)CC2)on1` [Example 3.34, 1-(4-(3-(((2R,3R,4S,5R,6R)-5-hydroxy-6-(hydroxymethyl)-3-methoxy-4-(4-(3,4,5-trifluorophenyl)-1H-1,2,3-triazol-1-yl)tetrahydro-2H-pyran-2-yl)methyl)isoxazol-5-yl)piperidin-1-yl)-2,2-dimethylpropan-1-one], the IC50 on human Gal-1 (hGal-1) was 1510 nM; on human Gal-3 (hGal-3) it was 120 nM.
